What all share (assay type): cell-based, human
In one assay the test system is A549. The assay is described as follows: CellTiter-Glo cell viability of senescent A549 cancer cells (Example 12, Table 67). The settings on record: Homo sapiens, A549, doxorubicin-induced senescent A549 cancer cells, CellTiter-Glo, read-out: Survival (%); for viability at 1.1 µM: 1.1 μM test compound; for viability at 10 µM: 10 μM test compound; for viability at 30 µM: 30 μM test compound; for viability at 90 µM: 90 μM test compound. (In general: Cellular ATP, detected with luciferase, serves as a proxy for viable cell number.)

For assay [1], the system named is HMGN1. In words: HMGN1 ELISA in culture medium of A549 cancer cells (Example 12, Table 66). The settings on record: Homo sapiens, A549, doxorubicin-induced senescent A549 cells, ELISA, DMSO = 100, read-out: HMGN1 (amount of HMGN1 secreted in the cell culture); for activity at 30 µM: test compound 30 μM; for activity at 90 µM: test compound 90 μM. On the technique in general: An ELISA detects its analyte on a solid surface through an enzyme-linked reagent.

In assay [2] the test system is HMGN1. The assay is described as follows: HMGN1 ELISA in culture medium of foreskin cells (Examples 10, 11; Tables 62, 63, 64). The settings on record: Homo sapiens, doxorubicin-treated foreskin cells, DMSO = 100; for activity at 30 µM: 30 μM test compound, read-out: HMGN1; for activity at 90 µM: 90 μM test compound.
For assay [3], the system named is foreskin cells in which senescence was induced by doxorubicin. In words: CellTiter-Glo cell viability of doxorubicin-induced senescent foreskin cells (Examples 1-2, 10, 11, 13; Tables 4, 63, 65). The settings on record: Homo sapiens, 72 h, doxorubicin-induced senescent foreskin cells, CellTiter-Glo, 0 μM = 100, read-out: Survival (%); for viability at 1.1 µM: 1.1 μM test compound; for viability at 10 µM: 10 μM test compound; for viability at 30 µM: 30 μM test compound; for viability at […]: […] test compound; for viability at 90 µM: 90 μM test compound.
Description: After 3 days, cell viability was measured using CellTiter-Glo Luminescent Cell Viability Assay (Promega) or light microscopy.

With `COc1cc2nccc(Oc3ccc(NC(=O)NC4CC4)c(Cl)c3)c2cc1C(N)=O` [LX-2803, Lenvatinib, reference compound], in the assay with A549, the viability at 1.1 µM is 91.2%, the viability at 10 µM amounted to 84.9% and the viability at 30 µM amounted to 54.4%. Also, the activity at 30 µM in the assay on HMGN1 [1] worked out at 195%. In addition, the activity at 30 µM in the assay with HMGN1 [2] was 282%. In addition, in assay [3], the viability at 1.1 µM was determined as 62%, the viability at 10 µM was 11.5%, the viability at 30 µM was 3.6% and the viability at […] turned out to be 43.9%.
Take `CC1(C)CC[C@]2(C(=O)NO)CC[C@]3(C)[C@H](C(=O)C=C4[C@@]5(C)C=C(C#N)C(=O)C(C)(C)[C@@H]5CC[C@]43C)[C@@H]2C1` [LX-2309]: the viability at 1.1 µM is 112% in the assay on A549 and 69.7% in assay [3]. The viability at 10 µM with A549 was 14.9%. The values for the activity at 30 µM in the assay on HMGN1 [1] and in the assay on HMGN1 [2] were 322% and 307%, respectively. The viability at […] in assay [3] came to 2.7%.
Turning to `C=C1C(=O)O[C@H]2C1CC/C(COC(=O)/C=C/c1c(OC)cccc1OC)=C\CCC1(C)O[C@H]21` (stereo partly shown) [LX-601], the viability at 1.1 µM came out at 13.8% with A549 and 6.1% in assay [3]. For the same compound, the activity at 30 µM in the assay on HMGN1 [1] was 318%; in the assay with HMGN1 [2] it was 293%. Also, the viability at […] in assay [3] is 3.3%.
For the compound `CC1(C)CC[C@]2(NS(C)(=O)=O)CC[C@]3(C)[C@H](C(=O)C=C4[C@@]5(C)C=C(C#N)C(=O)C(C)(C)[C@@H]5CC[C@]43C)[C@@H]2C1` [LX-2306], the viability at 1.1 µM in the assay with A549 was found to be 102%; in assay [3], 29.8%. Moreover, in the assay on A549, the viability at 10 µM was determined as 11.5%. Moreover, the activity at 30 µM in the assay on HMGN1 [1] came to 296%; in the assay with HMGN1 [2], 301%. For the same compound, in assay [3], the viability at […] came to 7.1%.
With `CONC(=O)[C@]12CCC(C)(C)C[C@H]1[C@H]1C(=O)C=C3[C@@]4(C)C=C(C#N)C(=O)C(C)(C)[C@@H]4CC[C@@]3(C)[C@]1(C)CC2` [LX-2310], the figures for the viability at 1.1 µM (in the assay with A549; in assay [3]) were 100% and 53.7%, respectively. For the same compound, the viability at 10 µM in the assay with A549 came out at 3.5%. The activity at 30 µM in the assay with HMGN1 [1] was found to be 319%; in the assay with HMGN1 [2], 315%. The viability at […] in assay [3] was found to be 6.9%.
Regarding `Nc1cccc2c1CN(C1CCC(=O)NC1=O)C2=O` (stereo not shown) [LX-3207, Lenalidomide, reference compound], in the assay with A549, the viability at 1.1 µM came to 101%, the viability at 10 µM came to 76.4% and the viability at 30 µM worked out at 18.9%. In addition, in the assay with HMGN1 [1], the activity at 30 µM was 222%. The activity at 30 µM with HMGN1 [2] amounted to 219%. Also, in assay [3], the viability at 1.1 µM was found to be 99.3%, the viability at 10 µM came to 56.4%, the viability at 30 µM came to 17.9% and the viability at […] worked out at 91.9%.
Consider `CC(C)Oc1ccc(-c2ccccc2)cc1-n1c(CN2CCN(C(=O)COc3ccc(Cl)cc3)CC2)nc2ccccc2c1=O` [LX-1001], for which, in the assay with A549, the viability at 1.1 µM came to 95.5%, the viability at 10 µM stood at 92.2%, the viability at 30 µM is 71.8% and the viability at 90 µM worked out at 25.3%. For the same compound, the activity at 90 µM with HMGN1 [1] was 183%. In addition, the activity at 30 µM in the assay with HMGN1 [2] is 231%. Besides, in assay [3], the viability at 1.1 µM worked out at 89.9%, the viability at 10 µM came out at 57.7%, the viability at 30 µM is 34.5% and the viability at […] was 81.8%.
`C=CC(=O)N1CCC([C@@H]2CCNc3c(C(N)=O)c(-c4ccc(Oc5ccccc5)cc4)nn32)CC1` [LX-3309, Zanubrutinib, reference compound]: in the assay on A549, the viability at 1.1 µM worked out at 104%, the viability at 10 µM is 49.6% and the viability at 30 µM worked out at 35.2%. Moreover, the activity at 30 µM with HMGN1 [1] came out at 247%. Also, the activity at 30 µM in the assay with HMGN1 [2] stood at 293%. In assay [3], the viability at 1.1 µM came out at 99.3%, the viability at 10 µM stood at 36.9% and the viability at […] was found to be 87.1%.
Take `COC(=O)[C@@]1(C)CC[C@]2(C)CC[C@]3(C)[C@H](C(=O)C=C4[C@@]5(C)C=C(C#N)C(=O)C(C)(C)C5CC[C@]43C)[C@@H]2C1` (stereo partly shown) [LX-2513, Soloxolone methyl]: in the assay on A549, the viability at 1.1 µM came to 105% and the viability at 10 µM is 6.9%. For the same compound, the activity at 30 µM in the assay with HMGN1 [1] is 311%. Moreover, the activity at 30 µM in the assay on HMGN1 [2] came to 325%. In addition, in assay [3], the viability at 1.1 µM worked out at 49.6% and the viability at […] amounted to 2.6%.
On to `C[C@@H]1C(=O)C(C#N)=C[C@]2(C)C3=CC(=O)[C@@H]4[C@@H]5CC(C)(C)CC[C@]5(CO)CC[C@@]4(C)[C@]3(C)CC[C@@H]12` [LX-2317], for which, in the assay on A549, the viability at 1.1 µM is 93.5% and the viability at 10 µM came out at 29.7%. Moreover, in the assay on HMGN1 [1], the activity at 30 µM was determined as 282%. In addition, the activity at 30 µM with HMGN1 [2] came out at 317%. In assay [3], the viability at 1.1 µM worked out at 48.2% and the viability at […] was determined as 7.8%.
In the case of `CCCCC/C=C\C/C=C\C/C=C\C/C=C\CCCC(=O)O` [LX-2701, Arachidonic acid], in the assay with A549, the viability at 1.1 µM amounted to 102%, the viability at 10 µM amounted to 97.1%, the viability at 30 µM is 93.8% and the viability at 90 µM came out at 42.9%. Further, in the assay on HMGN1 [1], the activity at 90 µM came out at 179%. Moreover, in the assay with HMGN1 [2], the activity at 90 µM worked out at 194%. For the same compound, in assay [3], the viability at 1.1 µM amounted to 103%, the viability at 10 µM is 76.8%, the viability at 30 µM was found to be 48.3% and the viability at 90 µM is 29.4%. The viability at […] in assay [3] is 97.3%.
On to `O=C(NCc1ccncc1)C12CC3CC(C1)CC(c1ccc(Cl)cc1)(C3)C2` [LX-3106, Opaganib, reference compound], for which, in the assay on A549, the viability at 1.1 µM stood at 108%, the viability at 10 µM came out at 91.7%, the viability at 30 µM was determined as 76.8% and the viability at 90 µM came out at 4.7%. Also, the activity at 90 µM in the assay with HMGN1 [1] was 236%. Besides, the activity at 90 µM in the assay on HMGN1 [2] amounted to 254%. Further, in assay [3], the viability at 1.1 µM came out at 97.7%, the viability at 10 µM came to 82.5%, the viability at 30 µM amounted to 59.7% and the viability at 90 µM came to 9.8%. Further, the viability at […] in assay [3] is 87.4%.
In the case of `CO[C@]1(C(=O)N[C@@H](C)c2ccc(-n3cc(F)cn3)nc2)CC[C@H](c2nc(C)cc(Nc3cc(C)[nH]n3)n2)CC1` [LX-1902, Pralsetinib, reference compound], in the assay with A549, the viability at 1.1 µM worked out at 66.2% and the viability at 10 µM stood at 4.2%. Besides, the activity at 30 µM with HMGN1 [1] was 271%. The activity at 30 µM with HMGN1 [2] worked out at 303%. Also, in assay [3], the viability at 1.1 µM was 59%, the viability at 10 µM stood at 11.9%, the viability at 30 µM worked out at 3.9% and the viability at […] stood at 39.6%.
As to `CN(C)C(=S)N/N=C1\CCCc2cccnc21` [LX-802, 2-(6,7-Dihydroquinolin-8(5H)-ylidene)-N^4,N^4-dimethylhydrazine-1-carbothioamide], the values for the viability at 1.1 µM (in the assay on A549; in assay [3]) were 62.7% and 42.7%, respectively. Moreover, the values for the activity at 30 µM in the assay with HMGN1 [1] and in the assay with HMGN1 [2] were 329% and 301%, respectively. Moreover, in assay [3], the viability at […] was 5.7%.
As to `C[C@@H]1C(=O)C(C#N)=C[C@]2(c3ccccc3)c3c(c(-c4cccnc4)nn3C)CC[C@@H]12` [LX-2407, (5aS,6S,9aR)-1,6-dimethyl-7-oxo-9a-phenyl-3-(pyridin-3-yl)-4,5,5a,6,7,9a-hexahydro-1H-benzo[g]indazole-8-carbonitrile], the figures for the viability at 1.1 µM (with A549; in assay [3]) were 89.6% and 15.4%, respectively. Also, in the assay with A549, the viability at 10 µM was 41.8%. In addition, the activity at 30 µM in the assay on HMGN1 [1] turned out to be 316%; in the assay with HMGN1 [2], 308%. Further, the viability at […] in assay [3] is 5.9%.

These data come from patent publication US20250108036A1, “COMPOSITIONS FOR REMOVING SENESCENT CELLS AND USES THEREOF” (LIFECEUTIX CO., LTD., priority 2021, published 2025).
